# Measured values as given in patent publication US20230137021A1, “Drug Conjugates of Sugar Derivatives and Uses Thereof as Senolytic Agents” (Rubedo Life Sciences, Inc., priority 2021, published 2023).
# Where two headings read alike, the source gives them in different places.
# Legend:
# Type in all cases: cell-based
# [1] = tested on: T47D breast cancer cells, sgFUCA1; assay: CRISPR-engineered cancer cell line viability assay (XTT), T47D/sgFUCA1; conditions: T47D cells with Cas9 and sgFUCA1, treated for three days, absolute IC50 at Y=0.5 viability
# Experimental: (§1) T47D and HCC1954 breast cancer cells were cultured in RPMI 1640 medium containing 10% heat inactivated fetal bovine serum. Cell lines were infected with lentiviral construct(s) containing S. pyogenes Cas9 and sgRNA(s) targeting the gene(s) of interest. Infected cells were selected by antibiotic treatment. To assess cell viability in response to compound treatment, cells were seeded into 96-well plates. The next day, serial dilutions covering 10 concentrations of compound were added to the cells. Cells were treated for three days. Cell viability was determined by mitochondrial dehydrogenase activity (XTT assay, Cayman Chemical). To generate dose-response curves, data was fitted to a four-parameter Hill function and the absolute IC50 was determined at Y=0.5 viability.
# [2] = tested on: T47D breast cancer cells, sgNTC; assay: CRISPR-engineered cancer cell line viability assay (XTT), T47D sgNTC; conditions: T47D cells with Cas9 and sgNTC, treated for three days, absolute IC50 at Y=0.5 viability, read-out: T47/D sgNTC
# Experimental: as §1
# senescent A549 cells = assay: Cytotoxicity assay (XTT), senescent A549 cells; conditions: A549 senescence induced with 25 μM gemcitabine, incubated with drug for 72 hours, read-out: A549 SEN
# Experimental: (§2) Proliferating and senescent cells were maintained in T175 flasks under the conditions specified below, passaging upon reaching ˜90% confluency. Prior to use in cytotoxicity assays, cells were visually inspected under phase microscopy for contamination and health; if either contamination or significant cell debris was noted, cells were not used. Healthy cells were plated into the middle 60 wells of 96-well plates at a concentration of either 5,000 or 10,000 cells/well (for proliferating and senescent conditions, respectively). The outer 36 wells in each plate contained DPBS to both prevent desiccation of the interior wells and edge effects upon spectrometry readings. After seeding cells into the 96-well plates, they were given 24 hours to attach prior to drug addition. Drug was added in triplicate across 10 different concentrations, spanning roughly 4 Log 10 units. Plates were incubated with drug for 72 hours, at which point the drug-containing media was aspirated and replaced with XTT media. The XTT reagent undergoes an absorbance shift upon reduction through an NAD(P)H-dependent metabolic reaction, and the resulting shift can be used to quantify the viability of the remaining cells after drug treatment. Absorbance readings for each test article were taken once a suitable dynamic range was achieved (generally 0.7-1.4 absorbance units). The resulting data was then background corrected and logarithmized to produce concentration-response curves.
# Wild type A549 cells were thawed into DMEM (high glucose, 4 mM L-glutamine, no sodium pyruvate) supplemented with 10% heat-inactivated fetal bovine serum and 1% penicillin-streptomycin antibiotic cocktail. Cells were cultured at 37 C, 5% CO2, and atmospheric oxygen. For senescence induction, only A549s at passage 20 or lower were used. Cells were grown to 60-70% confluency before aspirating media and replacing with fresh media containing 25 μM gemcitabine. Cells were cultured without refreshing media for 72 hours. After treatment, the drug-containing media was aspirated, cells were gently washed with 1×DPBS, and fresh, drug-free media was added to the flask, at which point the cells were allowed to rest for a further 72 hours. Following this rest period, senescence induction was assessed by morphology, SA-β-gal activity, and EdU incorporation. Note: senescence induction with gemcitabine can occasionally result in spontaneous re-entry into the cell cycle in A549s. For this reason, cells should be used in various assays within 14 days of induction to avoid outgrowth of non-senescent populations. In cytotoxicity assays, proliferating cells at passage 20 or younger were included as a comparator. […]
# [3] = tested on: senescent IMR90 primary lung fibroblasts; assay: Cytotoxicity assay (XTT), senescent IMR90 cells; conditions: incubated with drug for 72 hours, read-out: IMR90 SEN
# Experimental: as §2, with “After seeding cells into the 96-well plates, they were given 24 hours to attach prior to drug addition. Drug was added in triplicate across 10 different concentrations, spanning roughly 4 Log 10 units. Plates were incubated with drug for 72 hours, at which point the drug-containing media was aspirated and replaced with XTT media.” left out, “The resulting data was then background corrected and logarithmized to produce concentration-response curves.” left out
# IMR90 primary lung fibroblasts were thawed into DMEM (high glucose, 4 mM L-glutamine, no sodium pyruvate) supplemented with 10% heat-inactivated fetal bovine serum and 1% penicillin-streptomycin antibiotic cocktail. […] Following this rest period, senescence induction was assessed by morphology, SA-β-gal activity, and EdU incorporation. […]
# [4] = tested on: T47D breast cancer cells, sgGLB sgGALC; assay: CRISPR-engineered cancer cell line viability assay (XTT), T47D/sgGLB sgGALC; conditions: Homo sapiens, 72 h, T47D cells with Cas9 and sgGLB sgGALC, treated for three days, absolute IC50 at Y=0.5 viability
# Experimental: as §1
Molecule,"IC50 ([1]; Homo sapiens, 72 h)","IC50 ([2]; Homo sapiens, 72 h)",IC50 (senescent A549 cells; Homo sapiens),further results
CC(=O)O[C@H]1[C@H](C)O[C@@H](ONC(=O)/C=C/c2ccc(CN(CCc3c(C)[nH]c4ccccc34)C(=O)OCc3oc(=O)oc3C)cc2)C[C@@H]1OC(C)=O [Compound 105],2860 nM,53.1 nM,–,–
"CC(=O)O[C@@H]1[C@H](C)O[C@@H](ONC(=O)c2cnc(N3CCC(CNCc4cn(C)c5ccccc45)CC3)nc2)C[C@@H]1OC(C)=O [Compound 107, (2S,3R,4S,6S)-3-(acetyloxy)-2-methyl-6-[({2-[4-({[(1-methyl-1H-indol-3-yl)methyl]amino}methyl)piperidin-1-yl]pyrimidin-5-yl}formamido)oxy]oxan-4-yl acetate]",1010 nM,9.4 nM,–,–
Cc1[nH]c2ccccc2c1CCNCc1ccc(/C=C/C(=O)NO[C@H]2C[C@H](O)[C@@H](O)[C@H](C)O2)cc1 [Compound 112],16400 nM,822 nM,–,–
"Cc1[nH]c2ccccc2c1CCNCc1ccc(/C=C/C(=O)NO[C@@H]2O[C@H](CF)[C@H](O)[C@H](O)[C@H]2O)cc1 [Compound 122, (E)-N-[(2S,3R,4S,5R,6S)-6-(fluoromethyl)-3,4,5-trihydroxy-tetrahydropyran-2-yl]oxy-3-[4-[[2-(2-methyl-1H-indol-3-yl)ethylamino]methyl]phenyl]prop-2-enamide]",–,> 30000 nM,–,IC50 [4]: > 30000 nM
C/C(=C\C=C\CNCCc1c(C)[nH]c2ccccc12)C/C=C/C(=O)NOC1O[C@H](CO)[C@H](F)[C@H](O)[C@H]1O (some centres unmarked) [Compound 126],–,–,> 30000 nM,–
"(2E)-N-{[(3aR,4S,7aS)-4-methyl-2-oxo-hexahydro-[1,3]dioxolo[4,5-c]pyran-6-yl]oxy}-3-[4-({[2-(2-methyl-1H-indol-3-yl)ethyl]amino}methyl)phenyl]prop-2-enamide [Compound 109]",–,–,–,IC50 [1]: 1360 nM; IC50 [2]: 330 nM; IC50 (senescent A549 cells): 2270 nM; IC50 ([3]; IMR90 senescence induced with 300 nM doxorubicin): 13500 nM

# The next lines start with results.
"IC50 ([1]; Homo sapiens, 72 h)","IC50 ([2]; Homo sapiens, 72 h)",Molecule,IC50 (senescent A549 cells; Homo sapiens),further results
29200 nM,–,Cc1[nH]c2ccccc2c1CCN(Cc1ccc(/C=C/C(=O)NO[C@H]2C[C@H](O)[C@@H](O)[C@H](C)O2)cc1)C(=O)OCc1oc(=O)oc1C [Compound 106],–,–
8720 nM,942 nM,"C[C@@H]1O[C@@H](ONC(=O)c2cnc(N3CCC(CNCc4cn(C)c5ccccc45)CC3)nc2)C[C@H](O)[C@@H]1O [Compound 108, N-{[(2S,4S,5S,6S)-4,5-dihydroxy-6-methyloxan-2-yl]oxy}-2-[4-({[(1-methyl-1H-indol-3-yl)methyl]amino}methyl)piperidin-1-yl]pyrimidine-5-carboxamide]",–,–
1110 nM,25.3 nM,CC(=O)O[C@H]1[C@H](C)O[C@@H](ONC(=O)/C=C/c2ccc(CNCCc3c(C)[nH]c4ccccc34)cc2)C[C@@H]1OC(C)=O [Compound 111],243 nM,"IC50 ([3]; Homo sapiens, IMR-90, IMR90 senescence induced with 300 nM doxorubicin): 3780 nM"
–,9860 nM,"Cc1[nH]c2ccccc2c1CCNCc1ccc(/C=C/C(=O)NO[C@@H]2O[C@H](CO)C[C@H](O)[C@H]2O)cc1 [Compound 124, (E)-N-[(2S,3R,4S,6S)-3,4-dihydroxy-6-(hydroxymethyl)tetrahydropyran-2-yl]oxy-3-[4-[[2-(2-methyl-1H-indol-3-yl)ethylamino]methyl]phenyl]prop-2-enamide]",67000 nM,IC50 [4]: > 30000 nM
